Experimental data taken from patent US4550186A, “Binuclear copper (II) carboxylates formed from amine-carboxyboranes” (Duke University, priority 1983, dated 1985).

Assays:
[1] = biological target: T1, aspartate carbamyl transferase (Mus musculus, UniProt B2RQC6); assay: In vitro aspartate carbamyl transferase activity; format: biochemical; conditions: 0.25 to 1.0 mM
T1 construct: ATCase domain of CAD
Experimental: (§1) CF1 male mice (~30 g) were implanted with 2×10^6 Ehrlich ascites tumor cells, intraperitoneally on Day 0. Compound I was suspended by homogenation in 0.05% polysorbate.80-water and administered intraperitoneally at 10 and 20 mg/kg for 9 days to determine its effectiveness for inhibition of tumor growth. Mice were sacrificed on Day 10, and the ascites fluid was collected from the peritoneal cavity. The volume and ascrit (packed cell volume) were determined for each animal and the percent inhibition of tumor growth was calculated. For the metabolic studies, mice were treated on Days 8 and 9 with 10 mg/kg of Compound I, intraperitoneally. […]
(§2) Carbamyl phosphate synthetase activity was determined using the reaction medium of Kalman et al [Am. […] Citrulline formed from ornithine was measured at 490 nm by the method of Archibald [J. Biol. Chem., 156, 121 (1944)]. […] The ^14 CO2 generated in 15 min was trapped in 1M KOH and counted. Thymidylate synthetase activity was determined using a post-mitochondrial supernatant (9000 g×10 min) and 5 μCi of 5-^3 H-deoxyuridine monophosphate (14 Ci/mmol) according to the method of Kampf et al [ J. Med. Chem., 19, 903 (1976)]. ^14 C-Formate incorporation into purines was determined by the method of Spassova et al [Biochem. Pharmacol., 25, 923 (1976)] using 0.5 μCi of ^14 C-formic acid (52.0 mCi/mmol). […] The Rf value for xanthine monophosphate was scraped and counted. […]

[2] = tested on: aspartate transcarbamylase; assay: In vivo aspartate transcarbamylase activity; design: species or system mouse
Experimental: as §1, §2

[3] = biological target: T2, ribosomal ribonucleic acid polymerase (Mus musculus, UniProt O35134+P70700); assay: In vitro ribosomal ribonucleic acid polymerase activity; format: biochemical; conditions: 0.25 to 1.0 mM
T2 construct: enzymes isolated from nuclei; endogenous in cells; host or cells: Ehrlich ascites tumor cell nuclei, ammonium sulfate fraction
Experimental: CF1 male mice (~30 g) were implanted with 2×10^6 Ehrlich ascites tumor cells, intraperitoneally on Day 0. Compound I was suspended by homogenation in 0.05% polysorbate.80-water and administered intraperitoneally at 10 and 20 mg/kg for 9 days to determine its effectiveness for inhibition of tumor growth. Mice were sacrificed on Day 10, and the ascites fluid was collected from the peritoneal cavity. The volume and ascrit (packed cell volume) were determined for each animal and the percent inhibition of tumor growth was calculated. For the metabolic studies, mice were treated on Days 8 and 9 with 10 mg/kg of Compound I, intraperitoneally. The animal was sacrificed on Day 10 and the ascites fluid harvested. The in vitro metabolic studies were performed at […] final concentration of Compound I.
In vitro and in vivo nuclear deoxyribonucleic acid polymerase activity was determined on isolated Ehrlich ascites cell nuclei. The incubation was that described by Sawada et al [Can. Res., 34, 3341 (1974)] except that [methyl-^3 H] deoxythymidine triphosphate (82.4 Ci/mmol) was used. The acid insoluble nucleic acid was collected on GF/F filters and counted. Nuclear ribonucleic acid polymerase activities were determined on enzymes isolated from nuclei. […] The acid insoluble ribonucleic acid was collected on nitrocellulose filters and counted.

T1 sequence (B2RQC6 2-2225): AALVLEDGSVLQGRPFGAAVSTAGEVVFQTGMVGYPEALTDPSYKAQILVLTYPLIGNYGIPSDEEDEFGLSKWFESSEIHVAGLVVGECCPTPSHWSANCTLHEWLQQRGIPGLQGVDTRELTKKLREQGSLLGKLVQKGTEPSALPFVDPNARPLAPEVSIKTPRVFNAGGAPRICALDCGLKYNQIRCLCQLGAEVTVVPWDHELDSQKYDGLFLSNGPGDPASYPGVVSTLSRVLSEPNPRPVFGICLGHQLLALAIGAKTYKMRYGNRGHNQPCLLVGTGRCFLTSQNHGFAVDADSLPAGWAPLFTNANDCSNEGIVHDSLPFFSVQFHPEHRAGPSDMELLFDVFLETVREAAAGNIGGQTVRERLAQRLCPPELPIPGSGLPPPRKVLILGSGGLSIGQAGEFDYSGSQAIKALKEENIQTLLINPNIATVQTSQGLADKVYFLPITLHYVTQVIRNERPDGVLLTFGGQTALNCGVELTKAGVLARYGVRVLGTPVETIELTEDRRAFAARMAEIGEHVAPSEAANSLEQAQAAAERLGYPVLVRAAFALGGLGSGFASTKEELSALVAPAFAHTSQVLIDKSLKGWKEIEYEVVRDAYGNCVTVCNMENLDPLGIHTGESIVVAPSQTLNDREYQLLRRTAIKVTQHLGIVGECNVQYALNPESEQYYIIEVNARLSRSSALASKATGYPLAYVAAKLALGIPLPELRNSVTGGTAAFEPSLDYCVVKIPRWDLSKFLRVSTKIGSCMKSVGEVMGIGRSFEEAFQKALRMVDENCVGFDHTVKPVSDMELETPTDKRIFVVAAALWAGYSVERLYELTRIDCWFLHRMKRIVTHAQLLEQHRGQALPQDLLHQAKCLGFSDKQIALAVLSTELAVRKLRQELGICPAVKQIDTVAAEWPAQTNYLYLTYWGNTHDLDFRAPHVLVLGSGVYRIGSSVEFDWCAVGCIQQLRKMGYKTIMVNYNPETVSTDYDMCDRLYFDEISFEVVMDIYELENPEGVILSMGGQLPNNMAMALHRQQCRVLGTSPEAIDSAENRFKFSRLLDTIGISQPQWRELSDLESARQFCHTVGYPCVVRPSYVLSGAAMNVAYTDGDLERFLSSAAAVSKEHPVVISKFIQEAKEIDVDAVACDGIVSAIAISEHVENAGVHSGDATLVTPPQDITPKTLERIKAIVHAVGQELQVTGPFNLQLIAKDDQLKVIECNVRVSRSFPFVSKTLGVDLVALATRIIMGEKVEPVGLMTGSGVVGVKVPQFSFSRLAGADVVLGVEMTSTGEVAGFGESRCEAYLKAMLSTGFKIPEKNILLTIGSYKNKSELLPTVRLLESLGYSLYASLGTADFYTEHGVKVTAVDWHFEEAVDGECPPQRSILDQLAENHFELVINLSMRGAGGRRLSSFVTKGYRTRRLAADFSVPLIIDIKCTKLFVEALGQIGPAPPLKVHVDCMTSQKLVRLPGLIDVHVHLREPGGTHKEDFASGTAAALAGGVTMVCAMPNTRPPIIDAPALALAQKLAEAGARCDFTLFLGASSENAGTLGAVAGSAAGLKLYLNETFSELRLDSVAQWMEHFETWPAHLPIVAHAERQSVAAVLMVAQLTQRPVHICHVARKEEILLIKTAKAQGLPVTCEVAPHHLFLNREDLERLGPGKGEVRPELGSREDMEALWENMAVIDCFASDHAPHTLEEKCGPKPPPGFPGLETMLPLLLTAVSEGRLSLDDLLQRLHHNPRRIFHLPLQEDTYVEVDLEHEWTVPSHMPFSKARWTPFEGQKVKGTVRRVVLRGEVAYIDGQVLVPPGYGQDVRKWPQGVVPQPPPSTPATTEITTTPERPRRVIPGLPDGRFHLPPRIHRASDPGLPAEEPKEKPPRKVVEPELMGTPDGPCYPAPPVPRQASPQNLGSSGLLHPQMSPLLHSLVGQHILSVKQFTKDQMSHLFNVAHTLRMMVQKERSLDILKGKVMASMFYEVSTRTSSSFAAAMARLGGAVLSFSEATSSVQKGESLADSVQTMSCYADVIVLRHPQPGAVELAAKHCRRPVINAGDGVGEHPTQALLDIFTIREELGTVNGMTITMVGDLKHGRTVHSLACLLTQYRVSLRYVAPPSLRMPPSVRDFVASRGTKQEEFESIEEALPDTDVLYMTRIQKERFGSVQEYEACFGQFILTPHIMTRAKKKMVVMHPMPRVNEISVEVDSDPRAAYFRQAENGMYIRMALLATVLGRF

## {Cu[(CH3)3 N.BH2 CO2 ]2.(CH3)3 N.BH2 COOH} [Compound I]
[1]
  aspartate carbamyl transferase inhibition: not inhibited
[2]
  Aspartate carbamyl transferase activity suppressed: 11%
[2]; 10 mg/kg/day I.P. on Days 8 and 9
  Aspartate transcarbamylase activity: 89 ± 8 % Control
[3]
  ribosomal ribonucleic acid polymerase inhibition: not inhibited
